Experimental data reported in US20240109881A1, “Heteroaryl Compounds as Ligand Directed Degraders of IRAK4” (Bristol-Myers Squibb Company, priority 2022, published 2024).

Target: T1, IRAK4 (Homo sapiens, UniProt Q9NWZ3)
T1 construct: endogenous in cells; host or cells: THP-1 cells
T1 sequence (Q9NWZ3 1-460): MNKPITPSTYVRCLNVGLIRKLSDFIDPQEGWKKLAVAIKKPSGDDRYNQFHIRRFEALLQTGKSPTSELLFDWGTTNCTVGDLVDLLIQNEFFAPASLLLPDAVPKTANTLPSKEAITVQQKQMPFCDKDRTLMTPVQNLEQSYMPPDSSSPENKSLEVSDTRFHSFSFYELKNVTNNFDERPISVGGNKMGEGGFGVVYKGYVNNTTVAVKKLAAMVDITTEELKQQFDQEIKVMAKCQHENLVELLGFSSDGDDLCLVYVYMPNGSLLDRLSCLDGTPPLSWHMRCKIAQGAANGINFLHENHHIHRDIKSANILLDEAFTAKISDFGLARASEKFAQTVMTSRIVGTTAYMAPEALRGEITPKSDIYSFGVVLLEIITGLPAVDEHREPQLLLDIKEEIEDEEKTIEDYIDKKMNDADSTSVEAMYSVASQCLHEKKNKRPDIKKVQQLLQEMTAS
Assay: LVL THP1 HTRF (THP1 Homogeneous Time Resolved Fluorescence)
Assay type: cell-based
Settings: THP1 cells, 18 h incubation with compound; for DC50: read-out: LVL THP1 HTRF EC50
Procedure, shortened: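 THP-1 cells in phenol red-free RPMI with 10% FBS were dosed with compound (20 nL in DMSO) for 18 h at 37° C. After 2 h lysis, IRAK4 was detected with anti-IRAK4-d2/anti-IRAK4-K HTRF antibodies for 18 h at room temperature and read at 665/615 nm; a parallel CTG plate was run.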

Q: What does the source list for `C[C@H](C#N)Nc1cc(-n2ncc3cc(C#N)cnc32)ncc1-n1cc([C@H]2CC[C@H](CCN3CCN(c4ccc(N5CCC(=O)NC5=O)c(Cl)c4)CC3)CC2)nn1` [P-364]?
A: LVL THP1 HTRF YMIN: 3.1%; DC50: 1.8 nM

Q: Which “LVL THP1 HTRF YMIN” value does the source give for `C[C@H](C#N)Nc1cc(-n2ncc3cc(C#N)cnc32)ncc1-n1cc([C@H]2CC[C@H](CCN3CCN(c4ccc(N5CCC(=O)NC5=O)c(F)c4)CC3)CC2)nn1` [P-365] here?
A: 2.0%

Q: And the DC50?
A: 2.3 nM

Q: How did the “LVL THP1 HTRF YMIN” value turn out when `C[C@H](C#N)Nc1cc(-n2ncc3cc(C#N)cnc32)ncc1-n1cc([C@H]2CC[C@H](CCN3CCN(c4ccc(N5CCC(=O)NC5=O)cc4)CC3)CC2)nn1` [P-366] was run?
A: 2.0%

Q: What about the DC50 of the same compound?
A: 10 nM

Q: What does the source list for `C[C@H](C#N)Nc1cc(-n2ncc3cc(C#N)cnc32)ncc1-n1cc([C@H]2CC[C@H](CCN3CCN(c4ccc(N5CCC(=O)NC5=O)cc4F)CC3)CC2)nn1` [P-367]?
A: LVL THP1 HTRF YMIN: 7.9%; DC50: 116 nM

Q: With `C[C@H](C#N)Nc1cc(-n2ncc3cc(C#N)cnc32)ncc1-n1cc([C@H]2CC[C@H](CCN3CCN(c4ccc(NC5CCC(=O)NC5=O)cc4)CC3)CC2)nn1` (stereo partly shown) [P-368] as the compound, how does the “LVL THP1 HTRF YMIN” value read?
A: 2.9%

Q: What about the DC50 of the same compound?
A: 4.4 nM

Q: Which “LVL THP1 HTRF YMIN” value does the source give for `C[C@H](C#N)Nc1cc(-n2ncc3cc(C#N)cnc32)ncc1-n1cc([C@H]2CC[C@H](CCN3CCN(c4ccc5c(N6CCC(=O)NC6=O)nn(C)c5c4)CC3)CC2)nn1` [P-369] here?
A: 3.0%

Q: What about the DC50 of the same compound?
A: 2.2 nM

Q: How did the “LVL THP1 HTRF YMIN” value turn out when `C[C@H](C#N)Nc1cc(-n2ncc3cc(C#N)cnc32)ncc1-n1cc([C@H]2CC[C@H](CCN3CCN(c4ccc(N5CCC(=O)NC5=O)nc4)CC3)CC2)nn1` [P-370] was run?
A: 1.2%

Q: And the DC50?
A: 30.5 nM

Q: How did the “LVL THP1 HTRF YMIN” value turn out when `C[C@H](C#N)Nc1cc(-n2ncc3cc(C#N)cnc32)ncc1-n1cc([C@H]2CC[C@H](CCN3CCN(c4ccc(N5CCC(=O)NC5=O)cn4)CC3)CC2)nn1` [P-371] was run?
A: 4.1%

Q: And the DC50?
A: 8.7 nM

Q: What does the source list for `C[C@H](C#N)Nc1cc(-n2ncc3cc(C#N)cnc32)ncc1-n1cc([C@H]2CC[C@H](CCN3CCN(c4ncc(N5CCC(=O)NC5=O)s4)CC3)CC2)nn1` [P-372]?
A: LVL THP1 HTRF YMIN: 40.1%; DC50: 235 nM

Q: What does the source list for `C[C@H](C#N)Nc1cc(-n2ncc3cc(Cl)cnc32)ncc1-n1cc([C@H]2CC[C@H](CCN3CCN(c4ccc(C5CCC(=O)NC5=O)cc4)CC3)CC2)nn1` (stereo partly shown) [P-375]?
A: LVL THP1 HTRF YMIN: 2.5%; DC50: 6.5 nM

Q: What does the source list for `C[C@H](C#N)Nc1nc(-n2ncc3cc(C#N)cnc32)ncc1C(=O)N[C@H]1CC[C@H](CCN2CCN(c3ccc(C4CCC(=O)NC4=O)cc3)CC2)CC1` (stereo partly shown) [P-376]?
A: LVL THP1 HTRF YMIN: 7.2%; DC50: 30.3 nM

Q: With `C[C@H](C#N)Nc1nc(-n2ncc3cc(C#N)cnc32)ncc1-n1cc([C@H]2CC[C@H](CCN3CCN(c4ccc(C5CCC(=O)NC5=O)cc4)CC3)CC2)nn1` (stereo partly shown) [P-377] as the compound, how does the “LVL THP1 HTRF YMIN” value read?
A: 3.4%

Q: And the DC50?
A: 8.3 nM

Q: With `C[C@H](C#N)Nc1cc(Nc2ncc(C#N)cc2Cl)ncc1-n1cc([C@H]2CC[C@H](CCN3CCN(c4ccc(N5CCC(=O)NC5=O)cc4)[C@H](C)C3)CC2)nn1` [P-378] as the compound, how does the “LVL THP1 HTRF YMIN” value read?
A: 2.2%

Q: And the DC50?
A: 13 nM

Q: How did the “LVL THP1 HTRF YMIN” value turn out when `C[C@H](C#N)Nc1cc(Nc2ncc(C#N)cc2Cl)ncc1-n1cc([C@H]2CC[C@H](CCN3CCN(c4ccc(C5CCC(=O)NC5=O)cc4)CC3)CC2)nn1` (stereo partly shown) [P-379] was run?
A: 1.8%

Q: And the DC50?
A: 4 nM

Q: With `C[C@H](C#N)Nc1cc(Nc2ncc(Cl)cc2Cl)ncc1-n1cc([C@H]2CC[C@H](CCN3CCN(c4ccc(C5CCC(=O)NC5=O)cc4)CC3)CC2)nn1` (stereo partly shown) [P-380] as the compound, how does the “LVL THP1 HTRF YMIN” value read?
A: 12.1%

Q: What about the DC50 of the same compound?
A: 89.4 nM

Q: With `C[C@H](C#N)Nc1cc(Nc2ncc(C#N)cc2F)ncc1-n1cc([C@H]2CC[C@H](CCN3CCN(c4ccc(C5CCC(=O)NC5=O)cc4)CC3)CC2)nn1` (stereo partly shown) [P-381] as the compound, how does the “LVL THP1 HTRF YMIN” value read?
A: 2.1%

Q: What about the DC50 of the same compound?
A: 8.3 nM

Q: For `C[C@H](C#N)Nc1cc(Nc2ncc(F)cc2F)ncc1-n1cc([C@H]2CC[C@H](CCN3CCN(c4ccc(C5CCC(=O)NC5=O)cc4)CC3)CC2)nn1` (stereo partly shown) [P-382], which “LVL THP1 HTRF YMIN” value is on record?
A: 4.1%

Q: What about the DC50 of the same compound?
A: 28 nM

Q: How did the “LVL THP1 HTRF YMIN” value turn out when `C[C@H](C#N)Nc1cc(Nc2ncncc2F)ncc1-n1cc([C@H]2CC[C@H](CCN3CCN(c4ccc(C5CCC(=O)NC5=O)cc4)CC3)CC2)nn1` (stereo partly shown) [P-383] was run?
A: 5.6%

Q: What about the DC50 of the same compound?
A: 31.3 nM

Q: Which “LVL THP1 HTRF YMIN” value does the source give for `C[C@H](C#N)Nc1cc(Nc2ncc(C#N)cc2Cl)ncc1-n1cc([C@H]2CC[C@H](CCN3CCN(c4ccc(N5CCC(=O)NC5=O)cc4)CC3)CC2)nn1` [P-384] here?
A: 6.5%

Q: And the DC50?
A: 45.4 nM

Q: Which results are given for `C[C@H](C#N)Nc1cc(Nc2ncc(C#N)cc2F)ncc1-n1cc([C@H]2CC[C@H](CCN3CCN(c4ccc(N5CCC(=O)NC5=O)cc4)[C@H](C)C3)CC2)nn1` [P-385]?
A: LVL THP1 HTRF YMIN: −1.9%; DC50: 8.7 nM

Q: For `C[C@H](C#N)Nc1cc(Nc2ncc(C#N)cc2F)ncc1-n1cc([C@H]2CC[C@H](CCN3CCN(c4ccc(N5CCC(=O)NC5=O)cc4)CC3)CC2)nn1` [P-386], which “LVL THP1 HTRF YMIN” value is on record?
A: 6.7%

Q: What about the DC50 of the same compound?
A: 24.2 nM

Q: Which results are given for `C[C@H](C#N)Nc1cc(Nc2ncc(C#N)cn2)ncc1-n1cc([C@H]2CC[C@H](CCN3CCN(c4ccc(N5CCC(=O)NC5=O)cc4)[C@H](C)C3)CC2)nn1` [P-387]?
A: LVL THP1 HTRF YMIN: 9.8%; DC50: 14.1 nM

Q: Which “LVL THP1 HTRF YMIN” value does the source give for `C[C@H](C#N)Nc1cc(Nc2ncc(C#N)cn2)ncc1-n1cc([C@H]2CC[C@H](CCN3CCN(c4ccc(C5CCC(=O)NC5=O)cc4)CC3)CC2)nn1` (stereo partly shown) [P-388] here?
A: 3.5%

Q: And the DC50?
A: 11.1 nM

Q: What does the source list for `C[C@H](C#N)Nc1cc(Nc2ncc(C#N)cn2)ncc1-n1cc([C@H]2CC[C@H](CCN3CCN(c4ccc(N5CCC(=O)NC5=O)cc4)CC3)CC2)nn1` [P-389]?
A: LVL THP1 HTRF YMIN: 18.9%; DC50: 180 nM

Q: Which results are given for `CC(C)(O)CNc1cc(-n2ncc3cc(C#N)cnc32)ncc1-n1cc([C@H]2CC[C@H](CCN3CCN(c4ccc(C5CCC(=O)NC5=O)cc4)CC3)CC2)nn1` (stereo partly shown) [P-391]?
A: LVL THP1 HTRF YMIN: −0.8%; DC50: 3.7 nM

Q: For `CC[C@@H]1CN(CC[C@H]2CC[C@H](c3cn(-c4cnc(-n5ncc6cc(C#N)cnc65)cc4N[C@H](C)C#N)nn3)CC2)CCN1c1ccc(N2CCC(=O)NC2=O)cc1` [P-393], which “LVL THP1 HTRF YMIN” value is on record?
A: −3.4%

Q: What about the DC50 of the same compound?
A: 6.1 nM

Q: For `CCNc1cc(-n2ncc3cc(C#N)cnc32)ncc1-n1cc([C@H]2CC[C@H](CCN3CCN(c4ccc(C5CCC(=O)NC5=O)cc4)CC3)CC2)nn1` (stereo partly shown) [P-395], which “LVL THP1 HTRF YMIN” value is on record?
A: 2.6%

Q: And the DC50?
A: 9.3 nM

Q: Which “LVL THP1 HTRF YMIN” value does the source give for `COc1cnc2c(cnn2-c2cc(N[C@H](C)C#N)c(-n3cc([C@H]4CC[C@H](CCN5CCN(c6ccc(C7CCC(=O)NC7=O)cc6)CC5)CC4)nn3)cn2)c1` (stereo partly shown) [P-397] here?
A: 6.2%

Q: And the DC50?
A: 14.3 nM

Q: What does the source list for `COc1cnc(Nc2cc(N[C@H](C)C#N)c(-n3cc([C@H]4CC[C@H](CCN5CCN(c6ccc(C7CCC(=O)NC7=O)cc6)CC5)CC4)nn3)cn2)nc1` (stereo partly shown) [P-398]?
A: LVL THP1 HTRF YMIN: 5.8%; DC50: 24 nM

Q: `C[C@H](C#N)Nc1cc(-n2ncc3cc(C#N)cnc32)ncc1-n1cc([C@H]2CC[C@H](CCN3CCC(c4ccc(N5CCC(=O)NC5=O)cc4)C(F)C3)CC2)nn1` (stereo partly shown) [P-399] was tested. Which “LVL THP1 HTRF YMIN” value did it give?
A: 8.2%

Q: And the DC50?
A: 43.1 nM

Q: Which results are given for `C[C@H](C#N)Nc1cc(-n2ncc3cc(C#N)cnc32)ncc1-n1cc([C@H]2CC[C@H](CCN3CCC(c4ccc(N5CCC(=O)NC5=O)cc4)C(F)(F)C3)CC2)nn1` (stereo partly shown) [P-401]?
A: LVL THP1 HTRF YMIN: 0.5%; DC50: 12 nM

Q: `N#Cc1cnc2c(cnn2-c2cc(N[C@H]3CCC[C@H]3O)c(-n3cc([C@H]4CC[C@H](CCN5CCN(c6ccc(C7CCC(=O)NC7=O)cc6)CC5)CC4)nn3)cn2)c1` (stereo partly shown) [P-402] was tested. Which “LVL THP1 HTRF YMIN” value did it give?
A: 1.9%

Q: What about the DC50 of the same compound?
A: 3.3 nM
